Entries after “also recorded” stand apart in the source; their conditions may differ.
Experiments:
SERT Ala56 mice [1] = test: 8-OH-DPAT-induced hypothermia (5-HT1A receptor hypersensitivity); type: in vivo
From the text: Similarly, both drugs normalize 5-HT1A receptor hypersensitivity seen in adult SERT Ala56 mice as monitored by 8-OHDPAT induced hypothermia responses. […] […].

[2] = system: SERT Ala56 mice and WT littermates; test: Biogenic monoamine levels within the CNS by HPLC; type: in vivo; conditions: i.p., QD×1 wk
From the text: FIG. 17A-C. […] Respective brain sections were flash frozen and monoamine levels determined by HPLC. […] 5-Hydoxytryptamine (5-HT), Dopamine (DA), Norepinephrine (NE)
FIG. 19A-C. […] Respective brain sections were flash frozen and monoamine levels determined by HPLC. […] 5-Hydoxytryptamine (5-HT), Dopamine (DA), Norepinephrine (NE)
Respective brain sections were flash frozen and monoamine levels determined by HPLC.

SERT Ala56 mice [3] = test: DOI-induced head twitch (5-HT2A receptor hypersensitivity); type: in vivo; conditions: for CNS 5-HT2A receptor hypersensitivity (DOI-induced head-twitch response): adult SERT Ala56 mice, chronic administration, dose not stated; for SERT Ala56-mediated increases in DOI-induced head twitches: QD×1 wk
From the text: Two-Way ANOVA, followed by post-hoc Bonferroni's multiple comparison tests. *p<0.05, **p<0.01
FIG. 20A-B. […] Two-Way ANOVA, followed by post-hoc Bonferroni's multiple comparison tests. **p<0.01, ***p<0.001

IL-1β = conditions: in vivo treatment; cited from earlier work
SERT Ala56 mice [4] = test: Tube Test for Social Dominance; type: in vivo; conditions: for SERT Ala56 mediated social deficits in the Tube Test: SERT Ala56 mice; for Effect of treatment on its own in the Tube Test: wildtype mice, chronic treatment 1 week
From the text: FIG. 9. […] SERT Ala56 mice display social deficits in the Tube Test compared to their SERT Gly56 littermates.
FIG. 10. […] SERT Ala56 mice display social deficits in the Tube Test compared to their SERT Gly56 littermates.
FIG. 11. […] Chi Square analysis with Yate's Correction. n.s.=not significant, *p<0.05, ***p<0.001
FIG. 12. […] Chi Square analysis with Yate's Correction. n.s.=not significant, *p<0.05, ***p<0.001
Chi Square analysis with Yate's Correction. n.s.=not significant, *p<0.05, ***p<0.001
As described herein, SERT Ala56 mice have deficits in social behaviors in the Tube Test for Social Dominance. Studies were also conducted to determine the effect of specific p38 MAPK inhibitors on social deficits in the animal of ASD. Mice were treated with either saline or a specific p38 MAPK inhibitor for one week.
SERT Ala56 mice display social deficits in the Tube Test compared to their SERT Gly56 littermates.

[5] = system: SERT Ala56 mice and WT counterparts; test: Midbrain expression of SERT after chronic treatment; type: in vivo; conditions: 10 mg/kg, QD, i.p.×1 wk; SERT Ala56 mice or WT counterparts
[6] = chronic 10 mg/kg, i.p., DOI 1.0 mg/kg
[7] = chronic treatment for 1 week, dose not stated

| SMILES | SERT Ala56-mediated potentiation of 8-OH-DPAT-induced hypothermia (SERT Ala56 mice [1]; i.p., QD×1 wk, dose not stated) | Biogenic monoamine levels (5-HT, DA, NE) in midbrain, hippocampal or frontal cortex samples ([2]; 10 mg/kg) | CNS 5-HT2A receptor hypersensitivity (DOI-induced head-twitch response) (SERT Ala56 mice [3]) | SERT Ala56-mediated increases in DOI-induced head twitches (SERT Ala56 mice [3]; [6]) | LPS-induced increases in IL-1β within the CNS (IL-1β) | SERT Ala56 mediated social deficits in the Tube Test (SERT Ala56 mice [4]; 10 mg/kg, i.p., QD×1 wk) | SERT Ala56 mediated social deficits in the Tube Test (SERT Ala56 mice [4]; [7]) | Effect of treatment on its own in the Tube Test (SERT Ala56 mice [4]) | Midbrain expression of SERT [5] | SERT Ala56-mediated potentiation of 8-OH-DPAT-induced hypothermia (SERT Ala56 mice [1]; 5 mg/kg, i.p. QD×1 wk) | SERT Ala56-mediated potentiation of 8-OH-DPAT-induced hypothermia (SERT Ala56 mice [1]; 10 mg/kg, i.p. QD×1 wk) | Biogenic monoamine levels (5-HT, DA, NE) in midbrain, hippocampal or frontal cortex samples ([2]; 5 mg/kg) | SERT Ala56-mediated increases in DOI-induced head twitch (SERT Ala56 mice [3]; acute, single treatment 5 mg/kg, i.p., DOI 1.0 mg/kg) | SERT Ala56-mediated increases in DOI-induced head twitches (SERT Ala56 mice [3]; chronic 5 mg/kg, i.p., DOI 1.0 mg/kg) | SERT Ala56 mediated social deficits in the Tube Test (SERT Ala56 mice [4]; 5 mg/kg, i.p., QD×1 wk) |
| --- | --- | --- | --- | --- | --- | --- | --- | --- | --- | --- | --- | --- | --- | --- | --- |
| CN(C)c1cc(-c2ccncc2)c(-c2ccc3ccccc3c2)nn1 [MW108] | reduced this effect, albeit insignificantly | No differences between genotype or treatment group were found | normalize CNS 5-HT2A receptor hypersensitivity | dose-dependently attenuates | attenuate lipopolysaccharide (LPS)-induced increases in IL-1β | dose-dependently attenuate | reverses these social deficits; also recorded: reverse social behavior deficits | no effect on its own; also recorded: Neither dose of MW108 was found to exert any effects on its own; also recorded: Neither dose of MW108 or MW150 was found to exert any effects on their own | No changes in SERT expression | – | – | – | – | – | – |
| CN1CCN(c2cc(-c3ccncc3)c(-c3ccc4ccccc4c3)nn2)CC1 [MW150] | – | – | normalize CNS 5-HT2A receptor hypersensitivity | mitigates | – | attenuates SERT Ala56-mediated social deficits | reverses these social deficits; also recorded: reverse social behavior deficits | no effects on its own; also recorded: Neither dose of MW150 was found to exert any effects on its own; also recorded: Neither dose of MW108 or MW150 was found to exert any effects on their own | – | attenuates | attenuates | No differences between genotype or treatment group were found | not capable of reversing; also recorded: failed to mitigate | mitigates | attenuates SERT Ala56-mediated social deficits; also recorded: reverses these social deficits |

From patent US20160151366A1, “Compositions and Methods for Treating Autism Spectrum Disorders” (Vanderbilt University, priority 2014, published 2016)
